Measurements taken from ChEMBL document CHEMBL4130622, “Retinoic Acid Receptor-Related Orphan Receptor γt (RORγt) Agonists as Potential Small Molecule Therapeutics for Cancer Immunotherapy” (J Med Chem, 2018).
pEC50: −log10 of the molar value.

Legend:
[1] = target: T1, Nuclear receptor ROR-gamma (Homo sapiens) (UniProt P51449); assay: Agonist activity at Gal4-fused DBD RORgammat LBD (unknown origin) expressed in HEK293 cells assessed as coactivator recruitment at <0.5 uM incubated for overnight in presence of ursolic acid by luciferase reporter gene Assay relative to control; type: cell-based
T1 sequence (whole entry): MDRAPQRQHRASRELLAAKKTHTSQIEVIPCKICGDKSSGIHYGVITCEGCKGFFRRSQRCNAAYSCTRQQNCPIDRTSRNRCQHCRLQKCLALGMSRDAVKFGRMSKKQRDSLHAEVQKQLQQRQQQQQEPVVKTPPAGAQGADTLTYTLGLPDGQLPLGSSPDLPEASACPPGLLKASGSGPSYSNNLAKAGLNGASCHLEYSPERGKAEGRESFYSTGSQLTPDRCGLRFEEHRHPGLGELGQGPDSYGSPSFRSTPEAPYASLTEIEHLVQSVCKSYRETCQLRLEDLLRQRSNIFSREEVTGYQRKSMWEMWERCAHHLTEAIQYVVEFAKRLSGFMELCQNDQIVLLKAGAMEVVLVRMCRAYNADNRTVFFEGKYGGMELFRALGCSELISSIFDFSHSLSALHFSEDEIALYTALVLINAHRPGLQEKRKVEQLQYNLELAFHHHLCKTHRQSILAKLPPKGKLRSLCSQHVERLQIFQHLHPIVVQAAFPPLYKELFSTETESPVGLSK

[2] = target: T1, Nuclear receptor ROR-gamma (Homo sapiens); assay: Agonist activity at His tagged human RORgammat LBD (unknown origin) expressed in baculovirus infected sf9 cells assessed as biotinylated-LXXLL peptide coactivator recruitment at <0.5 uM incubated for overnight by TR-FRET Assay relative to control
[3] = target: T2, Nuclear receptor ROR-gamma (Homo sapiens, UniProt P51449); assay: Agonist activity at Gal4-fused RORgammat DNA binding domain (unknown origin) expressed in 293T cells assessed as SRC1 coactivator recruitment in presence of ursolic acid by TR-FRET assay; type: cell-based
T2 sequence (P51449 whole entry): T1 sequence (whole entry)

[4] = target: T2, Nuclear receptor ROR-gamma; assay: Agonist activity at 6xHis tagged human RORgammat LBD (262 to 507 residues) expressed in Escherichia coli BL21 (DE3) assessed as biotinylated SRC1-2 peptide coactivator recruitment by AlphaScreen assay
[5] = target: T2, Nuclear receptor ROR-gamma; assay: Agonist activity at His tagged RORgammat LBD (unknown origin) expressed in baculovirus infected sf9 cells assessed as biotinylated-LXXLL peptide coactivator recruitment incubated for overnight by TR-FRET Assay
[6] = target: T2, Nuclear receptor ROR-gamma; assay: Agonist activity at Gal4-fused DBD RORgammat LBD (unknown origin) expressed in HEK293 cells assessed as coactivator recruitment incubated for overnight in presence of ursolic acid by luciferase reporter gene Assay; type: cell-based

Activity [1] | Activity [2] | Compound | pEC50 [4] | further results
> 200% | > 200% | CCN(c1cccc(OCc2c(Cl)cccc2Cl)c1)S(=O)(=O)c1cccc(C(F)(F)F)c1 |  | 
> 200% | > 200% | COc1c(Cl)cccc1-c1ccc2c(c1)N(S(=O)(=O)c1cccc(C(F)(F)F)c1)C[C@H](CCC(=O)O)O2 |  | 
> 200% | > 200% | C/C(=C\c1ccc2c(c1)N(S(=O)(=O)c1cccc(C(F)(F)F)c1)C[C@H](CCc1nn[nH]n1)O2)c1c(F)cccc1Cl |  | 
 |  | CC(C)=CCC[C@@H](C)[C@H]1CC[C@H]2[C@@H]3CC=C4C[C@@H](O)CC[C@]4(C)[C@H]3CC[C@]12C [DESMOSTEROL] |  | pEC50 [3]: 7.10
 |  | CC(C)CCC[C@@](C)(O)[C@H]1CC[C@H]2[C@@H]3CC=C4C[C@@H](O)CC[C@]4(C)[C@H]3CC[C@@]21C | 7.40 to 7.70 | 
> 200% | > 200% | O=C(O)C1Cc2ccc(OCc3c(F)cccc3Cl)cc2N(S(=O)(=O)c2cccc(C(F)(F)F)c2)C1 (stereo not given) |  | 
 |  | CC(C)CCC[C@@H](C)[C@H]1CC[C@H]2[C@@H]3CC=C4C[C@@H](O)CC[C@]4(C)[C@H]3CC[C@]12C [CHOLESTEROL] | 7.70 | 
 |  | CC(C)CC[C@@H](O)[C@@H](C)[C@H]1CC[C@H]2[C@@H]3CC=C4C[C@@H](O)CC[C@]4(C)[C@H]3CC[C@]12C [22(R)-HYDROXYCHOLESTEROL] | 7.40 to 7.70 | 
 |  | C[C@H]1CN(S(=O)(=O)c2cccc(C(F)(F)F)c2)c2nc(COc3c(F)cccc3Cl)ccc2O1 |  | pEC50 [5]: > 6.30; pEC50 [6]: > 6.30
 |  | CC(C)=CCC[C@@H](C)[C@H]1CC[C@H]2C3=C(CC[C@]12C)[C@@]1(C)CC[C@H](O)C[C@@H]1CC3 |  | pEC50 [3]: 6.96
